Experimental data: US7169817B2, “Bis-aromatic alkanols” (IRM LLC, priority 2002, dated 2007)

Key:
Assay in all cases: GTPγS binding assay using S1P receptor/HEK293 membrane preparations
Format in all cases: biochemical
Conditions in all cases: membranes of transiently transfected HEK293 cells
[1] = molecular target: T1, S1P3 (Homo sapiens, UniProt Q99500)
T1 construct: expressed in transfected cells; host or cells: HEK293 (transient, calcium phosphate); crude membranes
Text: (§1) A. In vitro: Binding Affinity of Compounds of Formula I to Individual Human S1P Receptors may be Determined in the Following Assays:
(§2) Transient Transfection of Human S1P Receptors into HEK293 Cells
(§3) EDG receptors and Gi proteins are cloned, and equal amounts of 4 cDNAs for the EDG receptor, Gi-α, Gi-β and Gi-γ are mixed and used to transfect monolayers of HEK293 cells using the calcium phosphate precipitate method (M. Wigler et al., Cell. 1977;11;223 and D S. Im et al., Mol. Pharmacol. 2000;57;753). Briefly, a DNA mixture containing 25 μg of DNA and 0.25 M CaCl is added to HEPES-buffered 2 mM Na2HPO4. Subconfluent monolayers of HEK293 cells are poisoned with […] chloroquine, and the DNA precipitate is then applied to the cells. After 4 hours, the monolayers are washed with phosphate-buffered saline and re-fed media (90% 1:1 Dulbecco's modified essential media (DMEM):F-12+10% fetal bovine serum). The cells are harvested 48–72 hours after addition of the DNA by scraping in HME buffer (in mM: 20 HEPES, 5 MgCl2, 1 EDTA, pH 7.4) containing 10% sucrose on ice, and disrupted using a Dounce homogenizer. After centrifugation at 800×g, the supernatant is diluted with HME without sucrose and centrifuged at 100,000×g for 1 hour. The resulting pellet is rehomogenized and centrifuged a second hour at 100,000×g. This crude membrane pellet is resuspended in HME with sucrose, aliquoted, and snap-frozen by immersion in liquid nitrogen. The membranes are stored at […] Protein concentration is determined spectroscopically by the Bradford protein assay.
(§4) GTPγS Binding Assay Using S1P Receptor/HEK293 Membrane Preparations
(§5) GTPγS binding experiments are performed as described by D S. Im et al., Mol. Pharmacol. 2000; 57:753. Ligand-mediated GTPγS binding to G-proteins is measured in GTP binding buffer (in mM: 50 HEPES, 100 NaCl, 10 MgCl2, pH 7.5) using 25 μg of a membrane preparation from transiently transfected HEK293 cells. Ligand is added to membranes in the presence of 10 μM GDP and 0.1 nM [^35S]GTPγS (1200 Ci/mmol) and incubated at 30° C. for 30 min. Bound GTPγS is separated from unbound using the Brandel harvester (Gaithersburg, Md.) and counted with a liquid scintillation counter.

[2] = molecular target: T2, S1P4 (Homo sapiens, UniProt O95977)
T2 construct: expressed in transfected cells; host or cells: HEK293 (transient, calcium phosphate); crude membranes
T2 sequence (O95977 1-384): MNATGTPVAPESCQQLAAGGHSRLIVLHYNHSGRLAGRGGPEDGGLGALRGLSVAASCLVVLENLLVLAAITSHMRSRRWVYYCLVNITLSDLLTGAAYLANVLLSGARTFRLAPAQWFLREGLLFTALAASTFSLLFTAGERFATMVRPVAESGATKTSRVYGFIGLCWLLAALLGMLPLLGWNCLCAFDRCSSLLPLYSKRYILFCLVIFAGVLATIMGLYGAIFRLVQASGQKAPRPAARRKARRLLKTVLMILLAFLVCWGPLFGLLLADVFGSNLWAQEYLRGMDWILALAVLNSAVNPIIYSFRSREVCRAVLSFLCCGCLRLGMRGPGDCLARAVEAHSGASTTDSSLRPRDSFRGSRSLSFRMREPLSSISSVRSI
Text: as §1, §2, §3, §4, §5

[3] = molecular target: T3, S1P1 (Homo sapiens, UniProt P21453)
T3 construct: expressed in transfected cells; host or cells: HEK293 (transient, calcium phosphate); crude membranes
T3 sequence (P21453 whole entry): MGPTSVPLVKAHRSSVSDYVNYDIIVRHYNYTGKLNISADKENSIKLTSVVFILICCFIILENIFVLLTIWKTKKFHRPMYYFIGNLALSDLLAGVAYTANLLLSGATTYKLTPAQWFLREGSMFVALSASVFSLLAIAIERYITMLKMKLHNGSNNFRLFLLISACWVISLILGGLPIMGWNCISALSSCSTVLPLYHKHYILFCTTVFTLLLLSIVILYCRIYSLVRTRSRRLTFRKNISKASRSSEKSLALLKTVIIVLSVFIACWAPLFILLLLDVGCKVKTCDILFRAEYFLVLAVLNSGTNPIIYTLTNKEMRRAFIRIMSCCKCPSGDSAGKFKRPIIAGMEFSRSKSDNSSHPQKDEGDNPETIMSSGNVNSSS
Text: as §1, §2, §3, §4, §5

[4] = molecular target: T4, S1P5 (Homo sapiens, UniProt Q9H228)
T4 construct: expressed in transfected cells; host or cells: HEK293 (transient, calcium phosphate); crude membranes
T4 sequence (Q9H228 whole entry): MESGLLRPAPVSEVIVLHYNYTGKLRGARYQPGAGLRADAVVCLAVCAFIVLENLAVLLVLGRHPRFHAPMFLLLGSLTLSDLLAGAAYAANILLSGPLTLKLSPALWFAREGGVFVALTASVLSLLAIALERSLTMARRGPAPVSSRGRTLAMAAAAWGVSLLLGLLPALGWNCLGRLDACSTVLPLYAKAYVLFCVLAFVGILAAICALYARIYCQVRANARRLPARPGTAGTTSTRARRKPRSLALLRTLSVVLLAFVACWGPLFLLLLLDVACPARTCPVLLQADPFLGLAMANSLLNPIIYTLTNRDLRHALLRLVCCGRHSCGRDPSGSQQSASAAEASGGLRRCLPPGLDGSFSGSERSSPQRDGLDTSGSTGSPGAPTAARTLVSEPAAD
Text: as §1, §2, §3, §4, §5

[5] = molecular target: T5, S1P2 (Homo sapiens, UniProt O95136)
T5 construct: expressed in transfected cells; host or cells: HEK293 (transient, calcium phosphate); crude membranes
T5 sequence (O95136 whole entry): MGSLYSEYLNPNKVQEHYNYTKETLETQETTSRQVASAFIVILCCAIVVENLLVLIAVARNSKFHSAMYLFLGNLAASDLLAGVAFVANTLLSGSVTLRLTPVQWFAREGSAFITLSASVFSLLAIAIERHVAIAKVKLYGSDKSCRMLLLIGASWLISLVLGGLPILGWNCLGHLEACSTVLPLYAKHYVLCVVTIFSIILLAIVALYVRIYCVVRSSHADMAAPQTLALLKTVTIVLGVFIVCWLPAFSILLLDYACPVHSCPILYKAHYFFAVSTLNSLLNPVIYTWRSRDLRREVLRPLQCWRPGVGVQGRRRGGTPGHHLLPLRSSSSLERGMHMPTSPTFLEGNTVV
Text: as §1, §2, §3, §4, §5

T1 sequence (Q99500 whole entry): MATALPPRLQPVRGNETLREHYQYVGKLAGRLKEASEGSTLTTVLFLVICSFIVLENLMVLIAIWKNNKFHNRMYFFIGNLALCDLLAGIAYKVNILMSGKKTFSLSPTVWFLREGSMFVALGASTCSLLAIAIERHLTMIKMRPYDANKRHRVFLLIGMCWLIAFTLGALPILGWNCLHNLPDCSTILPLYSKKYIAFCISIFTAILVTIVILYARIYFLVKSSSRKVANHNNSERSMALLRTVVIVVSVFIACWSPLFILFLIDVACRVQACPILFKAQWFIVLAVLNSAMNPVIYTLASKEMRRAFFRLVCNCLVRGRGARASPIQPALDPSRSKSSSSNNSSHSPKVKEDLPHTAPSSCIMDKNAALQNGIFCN

| SMILES | EC50 [1] [nM] | EC50 [2] [nM] | EC50 [3] [nM] | EC50 [4] [nM] | EC50 [5] [nM] |
| --- | --- | --- | --- | --- | --- |
| CCCCCc1ccc(-c2ccc(CCC(N)(CO)CO)cc2)cc1 [Example 36] | > 10000 | 1.2 | 0.33 | 1.1 | > 10000 |
| NC(CO)(CO)CCc1ccc(-c2ccc(OCc3ccc(F)c(F)c3)cc2)cc1 [Example 63] | 1.9 | > 10000 | 0.07 | 0.1 | > 10000 |
| CCCc1cc(-c2ccc(-c3ccc(CCC(N)(CO)CO)cc3)cc2)no1 [Example 41] | 53.8 | > 10000 | 0.16 | 2.1 | > 10000 |
